Test results from patent US8211445B2, “PSM peptides as vaccine targets against methicillin-resistant Staphylococcus” (The United States of America, as represented by the …, priority 2007, dated 2012).
Residues, ends and D or L forms follow the SMILES beside them. No end group written: not given here. *: point of attachment. For = O=C*

Experiments:
human neutrophils [1] = assay: Lysis of human neutrophils (release of lactate dehydrogenase); type: cell-based; set-up: key to Neutrophil lysis: x: reduced activity; xx: strongly reduced activity; details: for Neutrophil lysis: pro-inflammatory activity of PSMα3 mutants, relative to wild type PSMα3; for ability to promote neutrophil lysis: compared with wild type PSMα3
Protocol: (§1) Lysis of PMNs by synthetic PSMs or clarified S. aureus culture media was determined essentially as described (Voyich et al., J Infect Dis 194, 1761-70, 2006; Voyich et al., J Immunol 175, 3907-19, 2005). Synthetic PSMs (1 or 10 μg/ml) were added to wells of a 96-well tissue culture plate containing 10^6 PMNs and plates were incubated at 37° C. for up to 3 hours. At the desired times, PMN lysis was determined by release of lactate dehydrogenase (LDH; Cytotoxicity Detection Kit, Roche Applied Sciences). Alternatively, wild-type and isogenic mutant S. aureus strains were cultured for 18 hours at 37° C. in 50 ml TSB with shaking using a 100 ml flask. Bacteria were removed by centrifugation and culture media were sterilized by filtration and stored at −80° C. in aliquots until used. Culture medium was diluted 1:10 in RPMI/H, mixed with human PMNs (10^6) and tested for its ability to cause PMN lysis.
as §1, with “above in Example 2.” for “(Voyich et al., J Infect Dis 194, 1761-70, 2006; Voyich et al., J Immunol 175, 3907-19, 2005).”
(§2) Human neutrophil assays: Human neutrophil isolation, chemotaxis, calcium ion flux, priming, lysis assays, and measurement of IL-8 production were performed as described in Example 2.

human PMN = assay: Measurement of cytokine production by human PMN (ELISA); type: cell-based; set-up: key to IL-8: x: reduced activity; xx: strongly reduced activity; details: for IL-8: secretion of IL-8 by human neutrophils, relative to wild type PSMα3; for IL-8 secretion: compared with wild type PSMα3
Protocol: After isolation and washing, PMN or PBMC were resuspended in RPMI 1640 medium (Sigma) supplemented with 10% human serum, 2 mM L-glutamine, 100 U/ml penicillin, 100 μg/ml streptomycin, 2 mM sodium pyruvate, and 10 mM HEPES. Cells were distributed to a 96-well culture plate at 200 μl and 5×10^5 cells per well. Synthetic PSM peptides or filtered bacterial culture supernatants were diluted in fresh culture medium and added to the plate at 100 μl/well. Plates were incubated at 37° C. in a 5.5% CO2 incubator for 5 hours. Then, the plate was centrifuged at 1500 rpm for 10 minutes, and supernatant was harvested from each well. Mono Mac 6 cells were obtained from DSMZ (Germany), and were grown in RPMI 1640 plus 10% heat inactivated fetal bovine serum (HyClone), 2 mM L-glutamine, 10.0 units/ml penicillin, 10.0 μg/ml streptomycin, 0.2× non-essential amino acid solution, and OPI medium supplement (Sigma). Cells were grown in T75 culture flasks in a 37° C. CO2 incubator and harvested by centrifugation. After removal of supernatant, cells were resuspended in fresh culture medium, counted, and distributed into a 96-well cell culture plate at 100 μl and 2.5×10^5 cells per well. Phorbol 12-myristate 13-acetate (Sigma) was added to a final concentration of 2.5 ng/ml for cell pre-stimulation. The plate was incubated in a 37° C. CO2 incubator for 3 hours. At the end of the pre-stimulation period, synthetic PSM peptides were diluted in culture medium and added to the cells at 100 μl/well. Cells were incubated in a 37° C. CO2 incubator for 20-22 hours, and the plate was centrifuged at 1500 rpm for 10 minutes. Human TNF-α, IL-1β, IL-8, and mouse TNF-α were measured in the culture supernatants with commercial ELISA assay kits (R&D systems) according to the manufacturer's instructions.
as §2

human neutrophils [2] = assay: Priming of human neutrophils (surface expression of CD11b and gp91phox); type: cell-based; set-up: key to CD11b: x: reduced activity; xx: strongly reduced activity; details: for ability to increase CD11b expression: compared with wild type PSMα3; for CD11b: surface expression of CD11b on human neutrophils, relative to wild type PSMα3
Protocol: (§3) Priming of PMNs by synthetic PSMs was determined by increased surface expression of CD11b and gp91phox (granule exocytosis). PMNs were incubated with 10-10,000 ng/ml PSM, 10 μM fMLP, 10 ng/ml lipopolysaccharide, or 10 μg/ml lipoteichoic acid in 96-well tissue culture plates at 37° C. with rotation for 60 minutes. The assay was terminated by centrifuging cells at 4° C. for 8 minutes at 350×g. Cells were washed twice in cold Dulbecco's phosphate-buffered saline and stained with and isotype control antibody (BD Biosciences) or those specific for CD11b (mAb 44, BD Biosciences) or gp91phox (mAb 7D533). Propidium iodide (0.5 μg/ml) was used to identify dead cells. PMNs were analyzed on a FACSCalibur flow cytometer (Becton Dickinson) and dead cells were excluded with a single gate. Percent positive neutrophils were determined with a marker defined by the boundary of the isotype-matched control antibody.
as §3, with “10-10000” for “10-10,000”, “7D5).” for “7D533).”
as §2

MRSA strains = details: cited from earlier work
[3] = Immunization of mice with synthetic PSM peptides, PSM-specific antibodies by ELISA; type: in vivo, mice (BALB/c); details: 50 μg s.c. with CFA, booster with IFA
Protocol: In order to determine the immunogenicity of synthetic PSM peptides, mice (BALB/c, female, 6-8 weeks) were injected subcutaneously with 50 μg (100 μL) of each PSM peptide in sterile PBS emulsified with complete Freund's adjuvant (CFA) for primary immunization. A booster injection containing incomplete Freund's adjuvant (IFA) instead of CFA was given to the animals 14 days after the primary immunization. The control group of animals received injections of sterile PBS and adjuvants only. Three blood withdrawals were performed on each mouse. The first two blood samples were collected via retro-orbital route immediately before primary injection and before booster injection, respectively. All animals were sacrificed 21 days after booster injection for the terminal blood samples.
PSM-specific antibodies in mouse serum were determined by ELISA assays. Microtiter plates (Nunc 96-well flat-bottom MaxiSorp plates) were coated with 20 μg/ml of each synthetic PSM peptides in PBS plus 0.05% NaN3, and incubated overnight at 4° C. The plates were washed with PBS containing 0.05% Tween-20, and blocked for 1 hour at room temperature with 1% BSA (Sigma) and 0.05% NaN3 in PBS. Serum samples were diluted in assay diluent (Tris-buffered saline containing 0.1% BSA and 0.05% Tween-20, pH 7.2), and added to the washed wells at 100 μl/well for an incubation of 2 hours at room temperature. Plates were washed again and HRP-labeled goat anti-mouse IgG (R&D Systems) and goat anti-mouse IgM (Jackson ImmunoResearch Laboratory) were diluted in assay diluent and added to the plates at 100 μl/well for an incubation of 1 hour at room temperature in order to detect PSM specific mouse IgG and IgM, respectively. Plates were washed again and a substrate solution containing equal volume of Tetramethylbenzidine and H2O2 was added to the plates at 100 μl/well for color development. The reaction was terminated by adding 50 μl of 1 M H2SO4 to each well, and optical density (O.D.) was measured at 450 nm using an ELISA plate reader.

sheep red blood cells = assay: Hemolysis of sheep red blood cells; type: cell-based; details: 10 μg/ml, compared to other PSMs (FIG. 21G)
Protocol: FIG. 8 includes several graphs showing hemolytic activities of PSMs. […] In FIGS. 8A and 8B, the data are mean±SEM of three independent measurements. P values are vs. DMSO in FIG. 8A and vs. wild-type in FIG. 8B. Hemolytic activity was determined by incubating samples with a 2% (v/v) suspension of sheep red blood cells and incubation at 37° C. for 1 hour. Synthetic PSM peptides or filtered bacterial overnight culture supernatants were diluted in PBS and added to sheep erythrocytes at a final concentration of 10 μg/ml for the peptides and 1:200 for culture filtrates.
Hemolysis: Hemolytic activity of PSM peptides was determined by incubating samples with a 2% (v/v) sheep red blood cells and incubation for 1 h at 37° C. as described (Wang et al., Nature Med. 13:1510-1514, 2007). Hemolytic activity of S. aureus wild-type and psm-mec deletion strains was assessed by streaking on sheep blood agar plates.

[4] = N-formylated synthetic PSM peptides, BALB/c mice (FIG. 11)
[5] = non N-formylated synthetic PSM peptides, BALB/c mice (FIG. 12)

Compound	Neutrophil lysis (human neutrophils [1])	IL-8 (human PMN)	other results
fMEFVAKLFKFFKDLLGAFLGNN [#15]	xx	xx	–
MEFVAKLFKFFKDLLGKFLGNN [PSMα3, no formyl]	x	xx	ability to increase CD11b expression (human neutrophils [2]): strongly reduced ability; CD11b (human neutrophils [2]): xx; ability to promote neutrophil lysis (human neutrophils [1]): reduced ability; IL-8 secretion (human PMN): strongly reduced ability
fMEFVAKLFAFFKDLLGKFLGNN [#7]	–	xx	–
fMEFVAKLFKFFKDLLGKFLGAN [#19]	xx	xx	ability to increase CD11b expression (human neutrophils [2]): greatest reduction; CD11b (human neutrophils [2]): xx; ability to promote neutrophil lysis (human neutrophils [1]): greatest reduction; IL-8 secretion (human PMN): greatest reduction
fMEFVAALFKFFKDLLGKFLGNN (For-MEFVAALFKFFKDLLGKFLGNN; listed as Staphylococcus aureus) [#4]	xx	xx	–
CN[C@H](CC(C)C)C(=O)N[C@H]1C(=O)N[C@@H](CC(N)=O)C(=O)N[C@H]2C(=O)N[C@H]3C(=O)N[C@H](C(=O)N[C@H](C(=O)O)c4cc(O)cc(O)c4-c4cc3ccc4O)[C@H](O)c3ccc(c(Cl)c3)Oc3cc2cc(c3O[C@@H]2O[C@H](CO)[C@@H](O)[C@H](O)[C@H]2O[C@H]2C[C@](C)(N)[C@H](O)[C@H](C)O2)Oc2ccc(cc2Cl)[C@H]1O [vancomycin]	–	–	minimum inhibitory concentration [MIC] (MRSA strains; MRSA strains with decreased susceptibility to vancomycin): 8 to 16 µg/mL; MIC (MRSA strains; strains fully resistant to vancomycin): ≥ 32 µg/mL
fMEFAAKLFKFFKDLLGKFLGNN (For-MEFAAKLFKFFKDLLGKFLGNN; listed as Staphylococcus aureus) [#3]	–	xx	–
MAIVGTIIKIIKAIIDIFAK [PSMα4]	–	–	specific antibody production in vivo [3, 4]: most robust antibody production
fMEFVAKLFKFFKDLLAKFLGNN [#14]	–	xx	–
fMAFVAKLFKFFKDLLGKFLGNN [#1]	xx	–	CD11b (human neutrophils [2]): x
MGIIAGIIKVIKSLIEQFTGK (S. aureus) [PSMα1]	–	–	specific antibody production in vivo [3, 4]: most robust antibody production; specific antibody production in vivo [3, 5]: strongest response
fMEFVAKLFKFFKDLLGKFLGNA [#20]	x	xx	CD11b (human neutrophils [2]): x
fMEFVAKLFKFFKALLGKFLGNN [#11]	–	xx	–
MEGLFNAIKDTVTAAINNDGAKLGTSIVSIVENGVGLLGKLFGF (S. aureus) [PSMβ1]	–	–	specific antibody production in vivo [3, 5]: strongest response
fMEFVAKAFKFFKDLLGKFLGNN (For-MEFVAKAFKFFKDLLGKFLGNN; listed as Staphylococcus aureus) [#5]	xx	–	–
CC[C@H](C)[C@H](NC(=O)[C@H](CS)NC(=O)[C@@H](NC(=O)[C@H](CCCCN)NC(=O)[C@@H](NC(=O)[C@H](CC(C)C)NC(=O)[C@H](CC(=O)O)NC(=O)[C@@H](NC(=O)[C@@H](NC(=O)[C@H](CO)NC(=O)[C@@H](NC(=O)[C@@H](NC(=O)[C@@H](NC(=O)CNC(=O)[C@@H](NC(=O)[C@H](Cc1ccccc1)NC(=O)[C@H](CC(=O)O)NC(=O)[C@H](CCSC)NC=O)[C@@H](C)O)C(C)C)[C@@H](C)CC)[C@@H](C)O)[C@@H](C)CC)[C@@H](C)CC)[C@@H](C)CC)[C@@H](C)O)C(=O)N[C@@H](CCC(N)=O)C(=O)N[C@@H](C)C(=O)N[C@@H](Cc1ccccc1)C(=O)NCC(=O)O [PSM-mec] (HELM PEPTIDE1{[O=C[*:2]].M.D.F.T.G.V.I.T.S.I.I.D.L.I.K.T.C.I.Q.A.F.G}$$$$V2.0)	–	–	lysis of sheep erythrocytes (sheep red blood cells): intermediate range
fMEFVAKLFKFFADLLGKFLGNN (For-MEFVAKLFKFFADLLGKFLGNN; listed as Staphylococcus aureus) [#10]	x	xx	CD11b (human neutrophils [2]): xx
